# According to the supplement of paper PMC10883282:
# Counter-ions that a name gives are not always drawn. ± gives the standard deviation of the averaged measurements.
# Test system: A204
# Experiment: relative viability vs DMSO control (72 h) (fraction); higher = more viable cells
# In short: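 After seeding at densities set for 80–90% confluence in 384-well plates, sarcoma cell lines waited 24 h before 2.5 µl of serially diluted compound was added. Source plates held 10 mM down to 0.0002 mM. Plates were incubated 72 h at 37 °C with 5% CO2, with 0.1% DMSO vehicle and a 5 µM positive control, and relative viability was taken from ATPLite as percent growth averaged over up to triplicate wells, with 1 set as full and 0 as none.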
Compound,relative viability (0.00017 µM),relative viability (0.00051 µM),relative viability (0.00152 µM),relative viability (0.00457 µM),relative viability (0.01372 µM),relative viability (0.04115 µM),relative viability (0.1235 µM),relative viability (0.3704 µM),relative viability (1.111 µM),relative viability (3.333 µM),relative viability (10 µM),relative viability (2 pM),relative viability (5 pM),relative viability (15 pM),relative viability (50 pM),relative viability (0.00014 µM),relative viability (0.00041 µM),relative viability (0.0012 µM),relative viability (0.0037 µM),relative viability (0.011 µM),relative viability (200 fM),relative viability (600 fM)
COc1cccc2c1C(=O)c1c(O)c3c(c(O)c1C2=O)C[C@@](O)(C(=O)CO)C[C@@H]3O[C@H]1C[C@H](N)[C@H](O)[C@H](C)O1 [Doxorubicin Hydrochloride],1.06 ± 0.015,1.07 ± 0.06,1.04 ± 0.006,0.941 ± 0.031,0.779 ± 0.1,0.56 ± 0.068,0.314 ± 0.032,0.137 ± 0.024,0.128 ± 0.0019,0.123 ± 0.014,0.118 ± 0.019,–,–,–,–,–,–,–,–,–,–,–
CO[C@H]1C[C@@H]2CC[C@@H](C)[C@@](O)(O2)C(=O)C(=O)N2CCCC[C@H]2C(=O)O[C@H]([C@H](C)C[C@@H]2CC[C@@H](OP(C)(C)=O)[C@H](OC)C2)CC(=O)[C@H](C)/C=C(\C)[C@@H](O)[C@@H](OC)C(=O)[C@H](C)C[C@H](C)/C=C/C=C/C=C/1C [Ridaforolimus],0.996 ± 0.029,0.915 ± 0.019,0.783 ± 0.025,0.677 ± 0.047,0.601 ± 0.07,0.582 ± 0.036,0.576 ± 0.02,0.512 ± 0.042,0.532 ± 0.023,0.513 ± 0.043,0.499 ± 0.0088,–,–,–,–,–,–,–,–,–,–,–
Cc1cc(C)c(/C=C2\C(=O)Nc3ccccc32)[nH]1 [Semaxanib],1.02 ± 0.067,1.03 ± 0.021,0.964 ± 0.055,0.966 ± 0.067,0.977 ± 0.052,0.925 ± 0.075,0.883 ± 0.015,0.852 ± 0.032,0.823 ± 0.041,0.568 ± 0.043,0.33 ± 0.032,–,–,–,–,–,–,–,–,–,–,–
CN1CCC(COc2cnc(-c3cccc(Cn4nc(-c5cccc(C#N)c5)ccc4=O)c3)nc2)CC1 [Tepotinib],1.11 ± 0.052,1.09 ± 0.052,1.1 ± 0.044,1.09 ± 0.059,1.08 ± 0.043,1.05 ± 0.012,1.09 ± 0.047,1.05 ± 0.03,1.07 ± 0.083,1.06 ± 0.073,0.76 ± 0.054,–,–,–,–,–,–,–,–,–,–,–
COc1cc2c(Oc3ccc4[nH]c(C)cc4c3F)ncnc2cc1OCCCN1CCCC1 [Cediranib],1.086 ± 0.0095,1.06 ± 0.017,1.08 ± 0.064,1.09 ± 0.024,0.984 ± 0.051,0.882 ± 0.09,0.457 ± 0.0087,0.336 ± 0.0094,0.251 ± 0.027,0.182 ± 0.0051,0.00917 ± 0.0011,–,–,–,–,–,–,–,–,–,–,–
C[C@@H](c1ccc2nccn2c1)n1nnc2ncc(-c3cnn(C)c3)nc21 [Volitinib],1.05 ± 0.014,1.08 ± 0.046,1.1 ± 0.031,1.08 ± 0.038,1.08 ± 0.033,1.07 ± 0.026,1.06 ± 0.031,1.06 ± 0.044,1.05 ± 0.042,0.962 ± 0.038,0.842 ± 0.072,–,–,–,–,–,–,–,–,–,–,–
CC1(C)CNc2cc(NC(=O)c3cccnc3NCc3ccncc3)ccc21 [Motesanib],0.977 ± 0.038,1.01 ± 0.046,1.01 ± 0.037,0.995 ± 0.015,0.968 ± 0.025,0.895 ± 0.045,0.76 ± 0.059,0.524 ± 0.017,0.393 ± 0.0075,0.3783 ± 0.0025,0.312 ± 0.012,–,–,–,–,–,–,–,–,–,–,–
N#CC[C@H](C1CCCC1)n1cc(-c2ncnc3[nH]ccc23)cn1 [Ruxolitinib],1.02 ± 0.015,1.03 ± 0.018,1.02 ± 0.049,1.02 ± 0.027,1.01 ± 0.026,1.01 ± 0.005,1.008 ± 0.0097,0.983 ± 0.031,0.96 ± 0.083,0.789 ± 0.053,0.655 ± 0.05,–,–,–,–,–,–,–,–,–,–,–
Cc1nc(NC(=O)N2CCC[C@H]2C(N)=O)sc1-c1ccnc(C(C)(C)C(F)(F)F)c1 [Alpelisib],0.942 ± 0.046,0.988 ± 0.037,1 ± 0.02,1.02 ± 0.06,0.983 ± 0.019,0.925 ± 0.035,0.895 ± 0.038,0.7675 ± 0.0064,0.651 ± 0.027,0.557 ± 0.052,0.414 ± 0.03,–,–,–,–,–,–,–,–,–,–,–
CN1CCN(c2ccc3nc(-c4c(N)c5c(F)cccc5[nH]c4=O)[nH]c3c2)CC1 [Dovitinib],1.1 ± 0.031,1.06 ± 0.031,1.06 ± 0.064,1.07 ± 0.046,1.01 ± 0.052,1.03 ± 0.056,0.907 ± 0.1,0.771 ± 0.029,0.355 ± 0.054,0.0814 ± 0.011,0.0143 ± 0.0029,–,–,–,–,–,–,–,–,–,–,–
COc1cc2c(cc1O)CCN[C@]21CS[C@@H]2c3c(OC(C)=O)c(C)c4c(c3[C@H](COC1=O)N1[C@@H]2[C@H]2c3c(cc(C)c(OC)c3O)C[C@@H]([C@@H]1O)N2C)OCO4 [Trabectedin],–,–,–,–,–,–,–,–,–,–,–,1.08 ± 0.026,1.06 ± 0.03,1.05 ± 0.056,0.979 ± 0.02,0.84 ± 0.031,0.399 ± 0.17,0.156 ± 0.13,0.215 ± 0.0065,0.202 ± 0.014,1.07 ± 0.03,1.1 ± 0.043
C=CC(=O)Nc1cccc(Oc2nc(Nc3ccc(N4CCN(C)CC4)cc3)nc3ccsc23)c1 [Olmutinib],1.09 ± 0.028,1.05 ± 0.038,1.06 ± 0.019,1.06 ± 0.039,1.05 ± 0.031,1.05 ± 0.02,1.01 ± 0.03,1.03 ± 0.022,0.929 ± 0.054,0.568 ± 0.064,0.177 ± 0.031,–,–,–,–,–,–,–,–,–,–,–
CC(C)NC(=O)C1CCC(n2c(NC(=O)c3ccc(F)cc3)nc3ccc(CN4CCC(C(C)(C)O)CC4)cc32)CC1 (centres undefined) [Belizatinib],1.1 ± 0.019,1.11 ± 0.056,1.11 ± 0.034,1.08 ± 0.02,1.092 ± 0.0066,1.09 ± 0.044,1.08 ± 0.026,1.05 ± 0.029,0.984 ± 0.086,0.727 ± 0.019,0.361 ± 0.069,–,–,–,–,–,–,–,–,–,–,–
CCN1CCN(Cc2ccc(Nc3ncc(F)c(-c4cc(F)c5nc(C)n(C(C)C)c5c4)n3)nc2)CC1 [Abemaciclib],1.05 ± 0.033,1.04 ± 0.035,1.04 ± 0.017,1.03 ± 0.034,0.976 ± 0.015,0.876 ± 0.027,0.77 ± 0.08,0.564 ± 0.023,0.417 ± 0.024,0.383 ± 0.031,0.333 ± 0.029,–,–,–,–,–,–,–,–,–,–,–
COc1c(OCCCN2CCOCC2)ccc2c1N=C(NC(=O)c1cnc(N)nc1)N1CCN=C21 [Copanlisib],1.05 ± 0.035,1.01 ± 0.07,0.927 ± 0.023,0.711 ± 0.055,0.583 ± 0.037,0.481 ± 0.049,0.399 ± 0.05,0.316 ± 0.027,0.268 ± 0.018,0.235 ± 0.019,0.211 ± 0.038,–,–,–,–,–,–,–,–,–,–,–
Cc1nc(-c2cn3c(n2)-c2ccc(-c4cnn(C(C)(C)C(N)=O)c4)cc2OCC3)n(C(C)C)n1 [Taselisib],1.05 ± 0.1,1.03 ± 0.086,0.993 ± 0.039,0.924 ± 0.061,0.852 ± 0.085,0.742 ± 0.041,0.609 ± 0.021,0.538 ± 0.028,0.435 ± 0.019,0.354 ± 0.038,0.29 ± 0.02,–,–,–,–,–,–,–,–,–,–,–
O=C(Cc1ccc(-c2ccc(OCCN3CCOCC3)cc2)cn1)NCc1ccccc1 [KX2-391],1.09 ± 0.031,1.07 ± 0.042,1.11 ± 0.04,1.05 ± 0.033,1.04 ± 0.084,0.894 ± 0.072,0.458 ± 0.064,0.36 ± 0.032,0.341 ± 0.014,0.31 ± 0.02,0.266 ± 0.0096,–,–,–,–,–,–,–,–,–,–,–
C[C@@H]1COCCN1c1cc(-c2ccnn2C)c2ccnc(-c3ccn[nH]3)c2n1,1.07 ± 0.068,1.05 ± 0.039,1.07 ± 0.067,1.08 ± 0.061,1.03 ± 0.037,0.903 ± 0.019,0.668 ± 0.05,0.431 ± 0.04,0.291 ± 0.015,0.231 ± 0.0066,0.222 ± 0.0062,–,–,–,–,–,–,–,–,–,–,–
Cc1cnc(Nc2ccc(OCCN3CCCC3)cc2)nc1Nc1cccc(S(=O)(=O)NC(C)(C)C)c1 [Fedratinib],1.07 ± 0.066,1.07 ± 0.022,1.13 ± 0.041,1.08 ± 0.035,1.09 ± 0.017,1.02 ± 0.034,0.97 ± 0.035,0.712 ± 0.088,0.396 ± 0.056,0.13 ± 0.016,0.0146 ± 0.0016,–,–,–,–,–,–,–,–,–,–,–
